Legend:
Assay in all cases: radiometric filter-binding kinase assay
[1] = molecular target: MAP3K11 (human) (UniProt Q16584)
[2] = molecular target: MAP3K7 TAB1 (human) (UniProt Q15750+O43318)
[3] = molecular target: MELK (human) (UniProt Q14680)
[4] = molecular target: FLT1 (human) (UniProt P17948)
[5] = molecular target: SYK (human) (UniProt P43405)
[6] = molecular target: RPS6KA3 KD1 KD2 (human) (UniProt P51812)
[7] = molecular target: AURKA (human) (UniProt O14965)
[8] = molecular target: PIM1 (human) (UniProt P11309)
[9] = molecular target: INSRR (human) (UniProt P14616)
[10] = molecular target: EPHB2 (human) (UniProt P29323)
[11] = molecular target: MAPK8 (human) (UniProt P45983)
[12] = molecular target: PIM3 (human) (UniProt Q86V86)
[13] = system: PAK2 (human), Q13177 [T402E]
[14] = molecular target: JAK2 JH1 JH2 (human) (UniProt O60674)
[15] = molecular target: CSNK1D (human) (UniProt P48730)
Chain of CSNK1D (human) (P48730 whole entry, looked up): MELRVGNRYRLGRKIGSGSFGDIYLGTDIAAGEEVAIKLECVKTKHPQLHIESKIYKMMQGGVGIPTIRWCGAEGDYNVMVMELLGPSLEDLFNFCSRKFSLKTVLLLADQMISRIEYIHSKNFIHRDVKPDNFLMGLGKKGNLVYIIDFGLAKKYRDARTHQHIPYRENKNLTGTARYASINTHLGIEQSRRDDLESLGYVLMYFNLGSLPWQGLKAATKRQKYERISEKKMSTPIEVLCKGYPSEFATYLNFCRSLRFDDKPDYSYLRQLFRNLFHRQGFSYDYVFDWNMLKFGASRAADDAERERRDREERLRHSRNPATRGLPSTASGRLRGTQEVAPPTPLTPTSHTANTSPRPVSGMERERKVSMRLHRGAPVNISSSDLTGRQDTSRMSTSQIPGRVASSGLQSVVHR

[16] = molecular target: TTK (human) (UniProt P33981)
[17] = system: SGK1 (human), O00141 [S422D]
[18] = molecular target: BRSK2 (human) (UniProt Q8IWQ3)
Chain of BRSK2 (human) (Q8IWQ3 whole entry, looked up): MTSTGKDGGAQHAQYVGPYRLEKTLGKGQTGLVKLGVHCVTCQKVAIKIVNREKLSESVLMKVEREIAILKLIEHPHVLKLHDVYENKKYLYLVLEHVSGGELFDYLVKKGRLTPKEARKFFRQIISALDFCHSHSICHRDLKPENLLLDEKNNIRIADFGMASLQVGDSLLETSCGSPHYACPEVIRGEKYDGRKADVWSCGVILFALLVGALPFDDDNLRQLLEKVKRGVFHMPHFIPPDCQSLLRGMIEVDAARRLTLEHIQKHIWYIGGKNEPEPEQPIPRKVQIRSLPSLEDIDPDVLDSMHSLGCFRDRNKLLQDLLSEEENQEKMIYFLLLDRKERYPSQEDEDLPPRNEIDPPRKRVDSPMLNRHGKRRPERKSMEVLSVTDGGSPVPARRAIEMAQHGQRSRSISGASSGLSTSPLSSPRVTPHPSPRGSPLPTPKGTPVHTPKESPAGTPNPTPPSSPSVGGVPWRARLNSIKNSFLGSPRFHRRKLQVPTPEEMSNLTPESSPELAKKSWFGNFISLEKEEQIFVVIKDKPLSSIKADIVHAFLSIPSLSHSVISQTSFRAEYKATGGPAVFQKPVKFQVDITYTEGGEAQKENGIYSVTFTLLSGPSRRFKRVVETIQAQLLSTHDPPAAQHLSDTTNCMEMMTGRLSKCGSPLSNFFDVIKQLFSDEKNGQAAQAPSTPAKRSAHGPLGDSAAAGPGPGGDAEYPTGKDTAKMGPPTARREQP

[19] = molecular target: MYLK (human) (UniProt Q15746)
[20] = molecular target: RIPK2 (human) (UniProt O43353)
[21] = system: RPS6KB1 (human), P23443 [T412E]
[22] = molecular target: CLK2 (human) (UniProt P49760)
[23] = molecular target: MAP2K2 (human) (UniProt P36507)
[24] = molecular target: PLK1 (human) (UniProt P53350)
[25] = molecular target: INSR (human) (UniProt P06213)
[26] = molecular target: EPHA4 (human) (UniProt P54764)
[27] = molecular target: IRAK4 (human) (UniProt Q9NWZ3)
Chain of IRAK4 (human) (Q9NWZ3 whole entry, looked up): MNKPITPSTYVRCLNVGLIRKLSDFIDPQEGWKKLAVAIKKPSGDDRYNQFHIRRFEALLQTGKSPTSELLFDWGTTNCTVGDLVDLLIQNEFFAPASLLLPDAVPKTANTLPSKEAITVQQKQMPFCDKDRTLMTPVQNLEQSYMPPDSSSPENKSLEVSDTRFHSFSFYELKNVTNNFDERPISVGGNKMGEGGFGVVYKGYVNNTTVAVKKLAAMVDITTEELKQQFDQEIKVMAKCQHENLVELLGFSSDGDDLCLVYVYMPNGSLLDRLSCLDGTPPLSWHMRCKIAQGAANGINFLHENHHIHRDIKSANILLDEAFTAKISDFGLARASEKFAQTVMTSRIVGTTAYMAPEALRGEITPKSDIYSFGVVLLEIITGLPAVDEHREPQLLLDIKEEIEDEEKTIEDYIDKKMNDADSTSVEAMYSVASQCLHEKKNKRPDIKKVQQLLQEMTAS

[28] = molecular target: FGFR1 (human) (UniProt P11362)
[29] = molecular target: CSK (human) (UniProt P41240)
[30] = molecular target: BRSK1 (human) (UniProt Q8TDC3)
[31] = molecular target: MAPK12 (human) (UniProt P53778)
[32] = molecular target: CDK2 CCNA2 (human) (UniProt P20248+P24941)
[33] = molecular target: MAPKAPK3 (human) (UniProt Q16644)
[34] = molecular target: MARK4 (human) (UniProt Q96L34)
Chain of MARK4 (human) (Q96L34 whole entry, looked up): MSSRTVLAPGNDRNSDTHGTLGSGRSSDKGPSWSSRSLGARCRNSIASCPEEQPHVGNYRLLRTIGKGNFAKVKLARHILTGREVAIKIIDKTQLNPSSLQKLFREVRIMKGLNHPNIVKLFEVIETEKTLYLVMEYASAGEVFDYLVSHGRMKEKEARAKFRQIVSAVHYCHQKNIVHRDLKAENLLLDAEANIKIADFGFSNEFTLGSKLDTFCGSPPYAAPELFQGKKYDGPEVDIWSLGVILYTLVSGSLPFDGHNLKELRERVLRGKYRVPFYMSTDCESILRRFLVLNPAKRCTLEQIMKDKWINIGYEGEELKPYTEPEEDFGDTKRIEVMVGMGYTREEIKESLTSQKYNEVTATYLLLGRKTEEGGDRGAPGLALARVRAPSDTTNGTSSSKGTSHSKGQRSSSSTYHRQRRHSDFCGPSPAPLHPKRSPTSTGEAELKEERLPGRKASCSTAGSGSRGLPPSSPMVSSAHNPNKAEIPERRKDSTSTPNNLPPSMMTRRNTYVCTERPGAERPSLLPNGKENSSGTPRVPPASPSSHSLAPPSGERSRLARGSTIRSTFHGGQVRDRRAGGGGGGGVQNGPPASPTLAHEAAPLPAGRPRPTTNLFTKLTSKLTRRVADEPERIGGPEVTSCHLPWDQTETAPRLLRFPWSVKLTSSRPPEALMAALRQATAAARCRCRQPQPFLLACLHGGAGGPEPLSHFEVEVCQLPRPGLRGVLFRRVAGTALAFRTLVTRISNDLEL

[35] = molecular target: TBK1 (human) (UniProt Q9UHD2)

Chain of MAP3K7 TAB1 (human) (O43318 whole entry, looked up): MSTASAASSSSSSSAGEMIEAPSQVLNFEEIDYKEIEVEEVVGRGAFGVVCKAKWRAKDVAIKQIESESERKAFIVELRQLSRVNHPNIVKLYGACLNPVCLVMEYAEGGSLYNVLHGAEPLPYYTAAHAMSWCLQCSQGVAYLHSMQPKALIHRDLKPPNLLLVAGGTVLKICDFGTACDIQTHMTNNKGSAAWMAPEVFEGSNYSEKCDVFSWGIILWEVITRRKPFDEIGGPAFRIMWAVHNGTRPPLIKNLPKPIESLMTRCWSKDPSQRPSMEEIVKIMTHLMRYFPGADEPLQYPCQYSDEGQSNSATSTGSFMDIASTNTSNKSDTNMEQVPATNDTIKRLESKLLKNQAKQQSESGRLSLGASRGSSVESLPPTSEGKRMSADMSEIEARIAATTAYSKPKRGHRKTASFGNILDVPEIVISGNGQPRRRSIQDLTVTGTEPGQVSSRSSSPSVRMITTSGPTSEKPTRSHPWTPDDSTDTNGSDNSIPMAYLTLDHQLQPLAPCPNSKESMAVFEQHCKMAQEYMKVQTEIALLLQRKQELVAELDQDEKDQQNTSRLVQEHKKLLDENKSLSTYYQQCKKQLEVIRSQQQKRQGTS
Chain of MAP3K7 TAB1 (human) (Q15750 whole entry, looked up): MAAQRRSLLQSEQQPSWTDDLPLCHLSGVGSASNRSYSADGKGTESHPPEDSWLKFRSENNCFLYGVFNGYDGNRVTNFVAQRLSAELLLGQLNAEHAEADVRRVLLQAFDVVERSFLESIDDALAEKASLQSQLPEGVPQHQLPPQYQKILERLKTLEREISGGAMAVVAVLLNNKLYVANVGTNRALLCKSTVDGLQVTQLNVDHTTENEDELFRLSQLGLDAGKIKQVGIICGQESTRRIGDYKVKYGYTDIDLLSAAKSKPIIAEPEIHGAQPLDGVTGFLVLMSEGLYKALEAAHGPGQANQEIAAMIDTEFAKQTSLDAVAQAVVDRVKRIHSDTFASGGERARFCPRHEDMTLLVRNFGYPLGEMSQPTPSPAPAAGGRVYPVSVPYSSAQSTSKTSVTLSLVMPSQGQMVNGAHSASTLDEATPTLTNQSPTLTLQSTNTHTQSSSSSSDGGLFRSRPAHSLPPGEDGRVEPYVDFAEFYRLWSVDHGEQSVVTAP
Chain of MELK (human) (Q14680 whole entry, looked up): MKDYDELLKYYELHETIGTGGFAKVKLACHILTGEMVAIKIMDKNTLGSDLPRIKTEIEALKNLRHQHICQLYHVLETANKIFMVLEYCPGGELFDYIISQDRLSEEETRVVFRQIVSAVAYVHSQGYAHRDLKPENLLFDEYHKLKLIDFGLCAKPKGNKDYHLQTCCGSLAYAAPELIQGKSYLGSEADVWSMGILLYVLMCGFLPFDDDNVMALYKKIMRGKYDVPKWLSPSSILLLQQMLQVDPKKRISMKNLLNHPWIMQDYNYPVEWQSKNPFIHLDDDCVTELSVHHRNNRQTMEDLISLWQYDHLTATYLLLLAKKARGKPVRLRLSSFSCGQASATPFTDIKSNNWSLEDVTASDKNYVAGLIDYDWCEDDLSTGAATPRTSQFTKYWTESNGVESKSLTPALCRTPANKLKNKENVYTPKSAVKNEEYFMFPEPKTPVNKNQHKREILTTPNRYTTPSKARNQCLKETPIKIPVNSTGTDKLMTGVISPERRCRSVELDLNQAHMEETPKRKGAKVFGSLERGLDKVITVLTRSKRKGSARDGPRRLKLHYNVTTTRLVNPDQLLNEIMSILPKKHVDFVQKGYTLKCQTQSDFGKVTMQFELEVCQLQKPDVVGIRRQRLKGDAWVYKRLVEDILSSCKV
Chain of AURKA (human) (O14965 whole entry, looked up): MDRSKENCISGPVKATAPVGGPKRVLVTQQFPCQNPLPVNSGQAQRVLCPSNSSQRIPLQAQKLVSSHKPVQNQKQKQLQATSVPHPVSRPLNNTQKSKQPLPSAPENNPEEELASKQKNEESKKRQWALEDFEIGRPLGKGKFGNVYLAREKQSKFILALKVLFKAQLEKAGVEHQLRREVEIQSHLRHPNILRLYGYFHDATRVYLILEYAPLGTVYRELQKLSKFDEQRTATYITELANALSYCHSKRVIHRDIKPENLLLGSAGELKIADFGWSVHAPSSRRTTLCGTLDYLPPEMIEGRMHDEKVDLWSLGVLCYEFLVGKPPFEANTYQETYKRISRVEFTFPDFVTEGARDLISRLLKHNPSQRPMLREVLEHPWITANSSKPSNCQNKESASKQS

## CCCCCc1ccc(/C=C/[C@H](O)[C@@H](CO)NC)cc1
[1]; compound 0.1 µM
  residual activity: 102%
[1]; compound 1.0 µM
  residual activity: 106%
[1]; compound 10.0 µM
  residual activity: 109%
[2]; compound 0.1 µM
  residual activity: 100%
[2]; compound 1.0 µM
  residual activity: 108%
[2]; compound 10.0 µM
  residual activity: 111%
[3]; compound 0.1 µM
  residual activity: 108%
[3]; compound 1.0 µM
  residual activity: 99%
[3]; compound 10.0 µM
  residual activity: 98%
[4]; compound 0.1 µM
  residual activity: 95%
[4]; compound 1.0 µM
  residual activity: 81%
[4]; compound 10.0 µM
  residual activity: 83%
[5]; compound 0.1 µM
  residual activity: 134%
[5]; compound 1.0 µM
  residual activity: 105%
[5]; compound 10.0 µM
  residual activity: 92%
[6]; compound 0.1 µM
  residual activity: 87%
[6]; compound 1.0 µM
  residual activity: 95%
[6]; compound 10.0 µM
  residual activity: 81%
[7]; compound 0.1 µM
  residual activity: 116%
[7]; compound 1.0 µM
  residual activity: 105%
[7]; compound 10.0 µM
  residual activity: 92%
[8]; compound 0.1 µM
  residual activity: 100%
[8]; compound 1.0 µM
  residual activity: 95%
[8]; compound 10.0 µM
  residual activity: 95%
[9]; compound 0.1 µM
  residual activity: 99%
[9]; compound 1.0 µM
  residual activity: 94%
[9]; compound 10.0 µM
  residual activity: 100%
[10]; compound 0.1 µM
  residual activity: 115%
[10]; compound 1.0 µM
  residual activity: 105%
[10]; compound 10.0 µM
  residual activity: 108%
[11]; compound 0.1 µM
  residual activity: 98%
[11]; compound 1.0 µM
  residual activity: 94%
[12]; compound 0.1 µM
  residual activity: 118%
[12]; compound 1.0 µM
  residual activity: 121%
[12]; compound 10.0 µM
  residual activity: 107%
[13]; compound 0.1 µM
  residual activity: 113%
[13]; compound 1.0 µM
  residual activity: 103%
[13]; compound 10.0 µM
  residual activity: 113%
[14]; compound 0.1 µM
  residual activity: 118%
[14]; compound 1.0 µM
  residual activity: 98%
[14]; compound 10.0 µM
  residual activity: 100%
[15]; compound 0.1 µM
  residual activity: 88%
[15]; compound 1.0 µM
  residual activity: 87%
[15]; compound 10.0 µM
  residual activity: 81%
[16]; compound 0.1 µM
  residual activity: 95%
[16]; compound 1.0 µM
  residual activity: 91%
[16]; compound 10.0 µM
  residual activity: 86%
[17]; compound 0.1 µM
  residual activity: 83%
[17]; compound 1.0 µM
  residual activity: 87%
[17]; compound 10.0 µM
  residual activity: 78%
[18]; compound 0.1 µM
  residual activity: 130%
[18]; compound 1.0 µM
  residual activity: 108%
[18]; compound 10.0 µM
  residual activity: 108%
[19]; compound 0.1 µM
  residual activity: 90%
[19]; compound 1.0 µM
  residual activity: 95%
[19]; compound 10.0 µM
  residual activity: 91%
[20]; compound 0.1 µM
  residual activity: 119%
[20]; compound 1.0 µM
  residual activity: 95%
[20]; compound 10.0 µM
  residual activity: 100%
[21]; compound 0.1 µM
  residual activity: 114%
[21]; compound 1.0 µM
  residual activity: 108%
[21]; compound 10.0 µM
  residual activity: 100%
[22]; compound 0.1 µM
  residual activity: 106%
[22]; compound 1.0 µM
  residual activity: 104%
[22]; compound 10.0 µM
  residual activity: 97%
[23]; compound 0.1 µM
  residual activity: 104%
[23]; compound 1.0 µM
  residual activity: 103%
[23]; compound 10.0 µM
  residual activity: 109%
[24]; compound 0.1 µM
  residual activity: 106%
[24]; compound 1.0 µM
  residual activity: 94%
[24]; compound 10.0 µM
  residual activity: 96%
[25]; compound 0.1 µM
  residual activity: 107%
[25]; compound 10.0 µM
  residual activity: 99%
[26]; compound 0.1 µM
  residual activity: 100%
[26]; compound 1.0 µM
  residual activity: 101%
[26]; compound 10.0 µM
  residual activity: 96%
[27]; compound 0.1 µM
  residual activity: 72%
[27]; compound 1.0 µM
  residual activity: 66%
[27]; compound 10.0 µM
  residual activity: 67%
[28]; compound 0.1 µM
  residual activity: 115%
[28]; compound 1.0 µM
  residual activity: 111%
[28]; compound 10.0 µM
  residual activity: 104%
[29]; compound 0.1 µM
  residual activity: 104%
[29]; compound 1.0 µM
  residual activity: 101%
[29]; compound 10.0 µM
  residual activity: 98%
[30]; compound 0.1 µM
  residual activity: 114%
[30]; compound 1.0 µM
  residual activity: 111%
[30]; compound 10.0 µM
  residual activity: 97%
[31]; compound 0.1 µM
  residual activity: 93%
[31]; compound 1.0 µM
  residual activity: 80%
[31]; compound 10.0 µM
  residual activity: 87%
[32]; compound 0.1 µM
  residual activity: 98%
[32]; compound 1.0 µM
  residual activity: 79%
[32]; compound 10.0 µM
  residual activity: 88%
[33]; compound 0.1 µM
  residual activity: 115%
[33]; compound 1.0 µM
  residual activity: 119%
[33]; compound 10.0 µM
  residual activity: 123%
[34]; compound 0.1 µM
  residual activity: 90%
[34]; compound 1.0 µM
  residual activity: 89%
[34]; compound 10.0 µM
  residual activity: 93%
[35]; compound 0.1 µM
  residual activity: 111%
[35]; compound 10.0 µM
  residual activity: 93%
